This note sets out measurements from publication PMC5769128, “Human UDP-Glucuronosyltransferase 2B4 and 2B7 Are Responsible for Naftopidil Glucuronidation in Vitro” (Frontiers in Pharmacology, 2018).

The target in data set [1] is T1, recombinant human UGT2B4 (Homo sapiens, UniProt P06133).
T1 construct: purchased BD Gentest
T1 sequence (P06133 24-528): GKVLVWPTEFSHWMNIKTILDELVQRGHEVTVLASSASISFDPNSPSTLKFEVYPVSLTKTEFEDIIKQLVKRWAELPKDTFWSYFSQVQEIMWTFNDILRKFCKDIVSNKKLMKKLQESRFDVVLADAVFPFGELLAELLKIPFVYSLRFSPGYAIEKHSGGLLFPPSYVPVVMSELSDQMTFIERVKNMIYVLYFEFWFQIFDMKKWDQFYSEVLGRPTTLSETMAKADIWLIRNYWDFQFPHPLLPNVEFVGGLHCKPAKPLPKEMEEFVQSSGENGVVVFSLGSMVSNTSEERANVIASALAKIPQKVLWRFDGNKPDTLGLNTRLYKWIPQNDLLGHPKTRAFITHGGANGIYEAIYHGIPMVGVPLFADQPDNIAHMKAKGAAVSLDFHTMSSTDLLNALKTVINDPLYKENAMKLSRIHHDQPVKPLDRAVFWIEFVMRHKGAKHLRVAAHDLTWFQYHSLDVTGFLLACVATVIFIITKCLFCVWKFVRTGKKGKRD
The data set is described as follows: Kinetics of NAF enantiomer glucuronidation by recombinant UGT2B4. The class given is in vitro ADME. How it is done:
(§1) All glucuronidation assays were conducted in an incubation volume of 200 μL. Incubations were performed at 37°C in 50 mM Tris–HCl buffer (pH 7.5) with 10 mM magnesium chloride, 1 mg protein/mL of enzyme (microsomes and recombinant human UGTs), alamethicin (100 μg of alamethicin/mg microsomal protein), and NAF enantiomers (2.5–80 μM). The reaction was initiated by the addition of UDPGA (5 mM) and incubated at 37°C in a shaking water bath for 45 min. The reaction was terminated by the addition of 200 μL of ice-cold acetonitrile containing the IS (1 μM) and then centrifuged at 5000 ×g for 10 min at 4°C. The supernatant fraction was injected into the RRLC-MS/MS apparatus. Protein concentration (0.5–2 mg/mL) and incubation time (15–180 min) were optimized in preliminary studies to be within initial linear rate conditions.
(§2) Kinetic parameters were assessed in the HLM, RLM, HKM, RKM, and recombinant human UGTs (UGT2B4, 2B7, and 1A9).

For data set [2], the target named is T2, UGT2B7 (Homo sapiens, UniProt P16662).
T2 sequence (P16662 24-529): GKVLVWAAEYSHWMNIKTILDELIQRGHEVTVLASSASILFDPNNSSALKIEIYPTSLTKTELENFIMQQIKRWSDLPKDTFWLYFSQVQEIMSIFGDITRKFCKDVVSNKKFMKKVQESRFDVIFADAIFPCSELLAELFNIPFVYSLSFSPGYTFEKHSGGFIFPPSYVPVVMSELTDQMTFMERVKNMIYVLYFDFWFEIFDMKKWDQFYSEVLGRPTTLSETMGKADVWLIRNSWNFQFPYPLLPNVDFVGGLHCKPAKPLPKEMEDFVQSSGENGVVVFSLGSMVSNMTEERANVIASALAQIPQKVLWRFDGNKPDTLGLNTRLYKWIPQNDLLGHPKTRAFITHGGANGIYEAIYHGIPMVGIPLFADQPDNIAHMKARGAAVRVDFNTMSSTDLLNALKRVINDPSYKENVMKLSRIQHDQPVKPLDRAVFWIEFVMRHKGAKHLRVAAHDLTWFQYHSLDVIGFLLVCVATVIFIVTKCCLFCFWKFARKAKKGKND
Put plainly: Kinetics of NAF enantiomer glucuronidation by recombinant UGT2B7. The class given is in vitro ADME. Details: purchased BD Gentest. The procedure: as §1, §2

The target in data set [3] is T3, recombinant human UGT1A10 (Homo sapiens, UniProt Q9HAW8).
T3 sequence (Q9HAW8 26-530): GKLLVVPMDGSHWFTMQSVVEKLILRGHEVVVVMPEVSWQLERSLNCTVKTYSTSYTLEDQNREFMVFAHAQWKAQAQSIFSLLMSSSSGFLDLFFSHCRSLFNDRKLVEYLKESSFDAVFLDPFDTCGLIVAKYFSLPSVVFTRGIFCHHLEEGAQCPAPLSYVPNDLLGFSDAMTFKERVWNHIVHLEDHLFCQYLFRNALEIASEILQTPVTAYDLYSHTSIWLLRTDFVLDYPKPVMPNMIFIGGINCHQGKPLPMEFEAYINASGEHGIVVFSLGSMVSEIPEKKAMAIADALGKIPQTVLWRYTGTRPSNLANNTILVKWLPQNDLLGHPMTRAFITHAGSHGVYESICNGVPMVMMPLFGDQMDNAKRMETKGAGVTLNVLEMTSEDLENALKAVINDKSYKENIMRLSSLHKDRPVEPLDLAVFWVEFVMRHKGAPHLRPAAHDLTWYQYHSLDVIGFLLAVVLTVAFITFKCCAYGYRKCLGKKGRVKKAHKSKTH
Put plainly: UGT reaction screening of NAF enantiomers, UGT1A10. To be noted: 10 μM substrate, 45 min.

The test system of data set [4] is UGT1A4, 1A3, 2B17, 2B15, 1A9, 1A8, and 1A7. The data set is described as follows: UGT reaction screening of S(-)-NAF, minor isoforms. The class given is in vitro ADME, human. To be noted: 10 μM substrate, 45 min.
Data set [5] has as its target T2, UGT2B7. The settings on record: substrate zidovudine, enzyme UGT2B7.
Protocol: The inhibition of UGT1A9 and UGT2B7 by NAF enantiomer was investigated using the pooled HLM, UGT1A9, and UGT2B7 with concentrations similar to that of the NAF enantiomer. Propofol, which was used as the specific substrate of UGT1A9, was added to the incubation. […] Inhibitor constants (Ki value) were estimated by fitting the expressions for competitive, non-competitive, and mixed inhibition models with Dixon plots and Lineweaver–Burk plots.
The target of data set [6] is T1, recombinant human UGT2B4. Put plainly: UGT reaction screening of NAF enantiomers, UGT2B4. The class given is in vitro ADME. The settings on record: 10 μM substrate, 45 min.
Data set [7] relates to human liver microsomes (HLM). The data set is described as follows: Kinetics of NAF enantiomer glucuronidation by human liver microsomes. It is filed as in vitro ADME. How it is done:
as §1, §2

Experiment in data set [8]: as above
The class given is in vitro ADME. The settings on record: human, human liver microsomes, pH 7.5; NAF glucuronidation by HLM; 2.5–80 μM substrate, 45 min. How it is done: as §1, §2
For orientation: Liver microsomes are a subcellular fraction often used to study metabolism.

The test system of data set [9] is UGT1A1, 1A4, 1A3, 2B17, 1A8, 2B15, and 1A7. Put plainly: UGT reaction screening of R(+)-NAF, minor isoforms. The class given is in vitro ADME, human. To be noted: 10 μM substrate, 45 min.

Take `COc1ccccc1N1CCN(C[C@H](O)COc2cccc3ccccc23)CC1` [S(-)-NAF]: the Kinetics type result on recombinant human UGT2B4 [1] is given as “substrate inhibition model”; on UGT2B7 [2], “substrate inhibition model”; in [7], “Michaelis–Menten model”. Also, in [3], the “Glucuronide formation by UGT1A10” value is “no activity”. Moreover, the Glucuronidation activity result in data set [4] is given as “a small amount of activity”. The Inhibition type entry at UGT2B7 [5] is on record as “Competitive”. For the same compound, on recombinant human UGT2B4 [6], the “Glucuronidation activity of UGT2B4 compared with UGT2B7” value is recorded as “relatively higher activity than UGT2B7”. Besides, in [8], the Michaelis-Menten constant (Km) at 45 min worked out at 19 µM.
For the compound `COc1ccccc1N1CCN(C[C@@H](O)COc2cccc3ccccc23)CC1` [R(+)-NAF], the Kinetics type result was “substrate inhibition model” on recombinant human UGT2B4 [1], “substrate inhibition model” at UGT2B7 [2] and “Michaelis–Menten model” in data set [7]. Also, the “Glucuronidation activity, times lower than UGT2B7” value in data set [9] was “more than 10 times”. Moreover, in [3], the “Glucuronide formation by UGT1A10” value is listed as “No R(+)-NAF-G was detected”. For the same compound, the Inhibition type result on UGT2B7 [5] was “Competitive”. Further, in [8], the Michaelis-Menten constant (Km) at 45 min is 48 µM.

A word on the Km: it is the concentration of substrate that gives half-maximal velocity.
